This assay deals with DuNE cells. Description: Drug-drug interaction (SynergyFinder) in DuNE cells. The assay is classed as cell-based. The following applies: score higher than 10 = synergistic. As for the experimental part: Fig. 6 Ln268 enhances stress inducers to inhibit cancer cell growth. A, B DuNE cells were transfected with GFP-tagged Lin28b together with either RFP-tagged G3BP1, YB-1, or DCP1. Cells were then challenged with ARS (A), cisplatin (CP) or etoposide (etop) (B) to induce a stress condition. Confocal microscope detected the subcellular localization of Lin28b. C, D Du145, DuNE and DuNE(KO) cells were treated with ARS (C), cisplatin (CP) or etoposide (etop) (D). Percentage of cells forming SGs was counted in five random fields from two replicate experiments. E DuNE and DuNE(KO) cells were treated with ARS, cisplatin or etoposide. Cell viability was measured by Incucyte. F DuNE cells were transfected with GFP-tagged Lin28b and treated with ARS together with C1632, Ln15, Ln268, or RNase. Confocal microscope detected SGs formation mediated by Lin28b. Fluorescence images were captured, and SGs sizes and numbers were calculated as shown. […] Drug interactions were calculated by SynergyFinder, with a synergy score higher than 10 representing synergistic relationship. […]
We subsequently investigated whether Ln268 could potentiate anticancer effects of stress inducers to block cancer cell growth in vitro. First, we determined the IC50 values of each inhibitor, which were then used to formulate drug-drug interactions of Ln268 with cisplatin, etoposide, or ARS (Figure S5). […]

For the compound `O=c1[nH]c(Nc2ccc(F)cc2O)cs1` [Ln268], the “synergy score, Ln268 + cisplatin” value was found to be 19.39 and the “synergy score, Ln268 + etoposide” value was determined as 12.77.

The values above are taken from publication PMC11725581, “Developing novel Lin28 inhibitors by computer aided drug design” (Cell Death Discovery, 2025).
